Legend:
Experiment in all cases: cells
[1] = test system: KY821; format: functional, cell-based, Homo sapiens; settings: Homo sapiens, KY821;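 also: growth inhibition of human KY821 cells, read out by a cell viability assay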
Description: SANGER: Inhibition of human KY821 cell growth in a cell viability assay.

[2] = test system: KURAMOCHI; format: functional, cell-based, Homo sapiens; settings: Homo sapiens, KURAMOCHI;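 also: growth inhibition of KURAMOCHI cells, read out with a cell viability assay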
Description: SANGER: Inhibition of human KURAMOCHI cell growth in a cell viability assay.

[3] = test system: NKM-1; format: functional, cell-based, Homo sapiens; settings: Homo sapiens, NKM-1;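 also: growth inhibition of NKM-1 cells, read out with a cell viability assay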
Description: SANGER: Inhibition of human NKM-1 cell growth in a cell viability assay.

[4] = test system: LS-123; format: functional, cell-based, Homo sapiens; settings: Homo sapiens, LS-123
Description: SANGER: Inhibition of human LS-123 cell growth in a cell viability assay.

[5] = test system: HH; format: functional, cell-based, Homo sapiens; settings: Homo sapiens, HH
Description: SANGER: Inhibition of human HH cell growth in a cell viability assay.

[6] = test system: OS-RC-2; format: functional, cell-based, Homo sapiens; settings: Homo sapiens, OS-RC-2;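 also: growth inhibition of human OS-RC-2 cells, measured by a cell viability assay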
Description: SANGER: Inhibition of human OS-RC-2 cell growth in a cell viability assay.

[7] = test system: NCI-H23; format: functional, cell-based, Homo sapiens; settings: Homo sapiens, NCI-H23;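 also: cell viability assay measuring growth inhibition of NCI-H23 cells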
Description: SANGER: Inhibition of human NCI-H23 cell growth in a cell viability assay.

[8] = test system: LXF-289 cell line; format: functional, cell-based; settings: Homo sapiens
Description: SANGER: Inhibition of human LXF-289 cell growth in a cell viability assay.

[9] = test system: LC-2-ad; format: functional, cell-based, Homo sapiens; settings: Homo sapiens, LC-2-ad;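 also: growth inhibition of human LC-2-ad cells, read out with a cell viability assay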
Description: SANGER: Inhibition of human LC-2-ad cell growth in a cell viability assay.

[10] = test system: RCC10RGB; format: functional, cell-based, Homo sapiens; settings: Homo sapiens, RCC10RGB;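 also: growth inhibition of human RCC10RGB cells, read out by a cell viability assay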
Description: SANGER: Inhibition of human RCC10RGB cell growth in a cell viability assay.

[11] = test system: D-263MG; format: functional, cell-based, Homo sapiens; settings: Homo sapiens, D-263MG
Description: SANGER: Inhibition of human D-263MG cell growth in a cell viability assay.

[12] = test system: TE-11; format: functional, cell-based; settings: Homo sapiens;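 also: growth inhibition of human TE-11 cells, read out by a cell viability assay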
Description: SANGER: Inhibition of human TE-11 cell growth in a cell viability assay.

[13] = test system: NCI-H69; format: functional, cell-based, Homo sapiens; settings: Homo sapiens, NCI-H69;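 also: growth inhibition of the cell line, read out with a cell viability assay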
Description: SANGER: Inhibition of human NCI-H69 cell growth in a cell viability assay.

[14] = test system: RS4-11; format: functional, cell-based, Homo sapiens; settings: Homo sapiens, RS4-11;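 also: growth inhibition of RS4-11 cells, read out by a cell viability assay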
Description: SANGER: Inhibition of human RS4-11 cell growth in a cell viability assay.

[15] = test system: ES3; format: functional, cell-based, Homo sapiens; settings: Homo sapiens, ES3;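 also: growth inhibition of ES3 cells, read out with a cell viability assay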
Description: SANGER: Inhibition of human ES3 cell growth in a cell viability assay.

[16] = test system: NCI-H1650; format: functional, cell-based, Homo sapiens; settings: Homo sapiens, NCI-H1650;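 also: growth inhibition of human NCI-H1650 cells measured by a cell viability assay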
Description: SANGER: Inhibition of human NCI-H1650 cell growth in a cell viability assay.

[17] = test system: QIMR-WIL; format: functional, cell-based, Homo sapiens; settings: Homo sapiens, QIMR-WIL;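 also: growth inhibition of QIMR-WIL cells, read out with a cell viability assay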
Description: SANGER: Inhibition of human QIMR-WIL cell growth in a cell viability assay.

[18] = test system: MS-1; format: functional, cell-based, Homo sapiens; settings: Homo sapiens, MS-1;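 also: growth inhibition of MS-1 cells, read out by cell viability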
Description: SANGER: Inhibition of human MS-1 cell growth in a cell viability assay.

[19] = test system: A4-Fuk; format: functional, cell-based, Homo sapiens; settings: Homo sapiens, A4-Fuk;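 also: growth inhibition of A4-Fuk cells, read out by a cell viability assay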
Description: SANGER: Inhibition of human A4-Fuk cell growth in a cell viability assay.

[20] = test system: Lu-65; format: functional, cell-based, Homo sapiens; settings: Homo sapiens, Lu-65;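 also: growth inhibition of Lu-65 cancer cells, read out by a cell viability assay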
Description: SANGER: Inhibition of human LU-65 cell growth in a cell viability assay.

[21] = test system: SH-4; format: functional, cell-based; settings: Homo sapiens;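 also: growth inhibition of SH-4 cells, read out with a cell viability assay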
[22] = test system: LS-1034; format: functional, cell-based, Homo sapiens; settings: Homo sapiens, LS-1034
Description: SANGER: Inhibition of human LS-1034 cell growth in a cell viability assay.

[23] = test system: COLO-320-HSR; format: functional, cell-based, Homo sapiens; settings: Homo sapiens, COLO-320-HSR;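 also: growth inhibition of COLO-320-HSR cells, determined with a cell viability assay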
Description: SANGER: Inhibition of human COLO-320-HSR cell growth in a cell viability assay.

[24] = test system: EW-18; format: functional, cell-based, Homo sapiens; settings: Homo sapiens, EW-18;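 also: growth inhibition of EW-18 cells, read out by a cell viability assay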
Description: SANGER: Inhibition of human EW-18 cell growth in a cell viability assay.

[25] = test system: NCI-H526; format: functional, cell-based, Homo sapiens; settings: Homo sapiens, NCI-H526;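 also: growth inhibition of the human NCI-H526 cell line, measured by a cell viability assay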
Description: SANGER: Inhibition of human NCI-H526 cell growth in a cell viability assay.

[26] = test system: JVM-2; format: functional, cell-based, Homo sapiens; settings: Homo sapiens, JVM-2;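 also: growth inhibition of JVM-2 cells determined by a cell viability assay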
Description: SANGER: Inhibition of human JVM-2 cell growth in a cell viability assay.

[27] = test system: SW684; format: functional, cell-based, Homo sapiens; settings: Homo sapiens, SW684;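 also: growth inhibition of human SW684 cells, measured by a cell viability assay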
[28] = test system: JVM-3; format: functional, cell-based, Homo sapiens; settings: Homo sapiens, JVM-3;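 also: growth inhibition of human JVM-3 cells, read out with a cell viability assay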
Description: SANGER: Inhibition of human JVM-3 cell growth in a cell viability assay.

[29] = test system: SNU-5; format: functional, cell-based, Homo sapiens; settings: Homo sapiens, SNU-5;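 also: cell viability readout used to measure growth inhibition in human NCI-SNU-5 cells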
Description: SANGER: Inhibition of human NCI-SNU-5 cell growth in a cell viability assay.

[30] = test system: LAMA-84; format: functional, cell-based, Homo sapiens; settings: Homo sapiens, LAMA-84;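 also: growth inhibition of LAMA-84 cells, read out with a cell viability assay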
[31] = test system: LB1047-RCC; format: functional, cell-based, Homo sapiens; settings: Homo sapiens, LB1047-RCC;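 also: inhibition of cell growth, determined with a cell viability assay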
Description: SANGER: Inhibition of human LB1047-RCC cell growth in a cell viability assay.

[32] = test system: EKVX; format: functional, cell-based, Homo sapiens; settings: Homo sapiens, EKVX;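 also: growth inhibition of human EKVX cells, read out with a cell viability assay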
Description: SANGER: Inhibition of human EKVX cell growth in a cell viability assay.

[33] = test system: LAN-6; format: functional, cell-based, Homo sapiens; settings: Homo sapiens, LAN-6;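 also: growth inhibition of LAN-6 cells, determined with a cell viability assay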
Description: SANGER: Inhibition of human LAN-6 cell growth in a cell viability assay.

[34] = test system: TGBC24TKB; format: functional, cell-based; settings: Homo sapiens;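 also: growth inhibition of human TGBC24TKB cells, read out with a cell viability assay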
Description: SANGER: Inhibition of human TGBC24TKB cell growth in a cell viability assay.

[35] = test system: A388; format: functional, cell-based; settings: Homo sapiens;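 also: growth inhibition of human A388 cells, read out with a cell viability assay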
Description: SANGER: Inhibition of human A388 cell growth in a cell viability assay.

[36] = test system: HAL-01; format: functional, cell-based, Homo sapiens; settings: Homo sapiens, HAL-01;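 also: growth inhibition of human HAL-01 cells, read out with a cell viability assay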
Description: SANGER: Inhibition of human HAL-01 cell growth in a cell viability assay.

[37] = test system: C8166; format: functional, cell-based, Homo sapiens; settings: Homo sapiens, C8166;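 also: growth inhibition of human C8166 cells measured by a cell viability assay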
Description: SANGER: Inhibition of human C8166 cell growth in a cell viability assay.

[38] = test system: ES6; format: functional, cell-based; settings: Homo sapiens;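 also: growth inhibition of human ES6 cells, read out with a cell viability assay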
Description: SANGER: Inhibition of human ES6 cell growth in a cell viability assay.

[39] = test system: HDLM-2; format: functional, cell-based, Homo sapiens; settings: Homo sapiens, HDLM-2;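 also: cell viability assay measuring suppression of HDLM-2 proliferation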
Description: SANGER: Inhibition of human HDLM-2 cell growth in a cell viability assay.

[40] = test system: LU-139; format: functional, cell-based, Homo sapiens; settings: Homo sapiens, LU-139
[41] = test system: KE-37; format: functional, cell-based, Homo sapiens; settings: Homo sapiens, KE-37;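 also: growth inhibition of KE-37 cells, read out with a cell viability assay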
Description: SANGER: Inhibition of human KE-37 cell growth in a cell viability assay.

[42] = test system: SF-126; format: functional, cell-based, Homo sapiens; settings: Homo sapiens, SF-126;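 also: growth inhibition of human SF126 cells, read out with a cell viability assay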
[43] = test system: NCI-H747; format: functional, cell-based, Homo sapiens; settings: Homo sapiens, NCI-H747;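 also: growth inhibition of human NCI-H747 cells, read out by a cell viability assay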
Description: SANGER: Inhibition of human NCI-H747 cell growth in a cell viability assay.

[44] = test system: LU-134-A; format: functional, cell-based, Homo sapiens; settings: Homo sapiens, LU-134-A
Description: SANGER: Inhibition of human LU-134-A cell growth in a cell viability assay.

[45] = test system: AM-38; format: functional, cell-based, Homo sapiens; settings: Homo sapiens, AM-38;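 also: growth inhibition of AM-38 cells of human origin, read out by a cell viability assay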
Description: SANGER: Inhibition of human AM-38 cell growth in a cell viability assay.

[46] = test system: RKO; format: functional, cell-based, Homo sapiens; settings: Homo sapiens, RKO;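 also: growth inhibition of human RKO cells, read out with a cell viability assay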
[47] = test system: L-363; format: functional, cell-based, Homo sapiens; settings: Homo sapiens, L-363
[48] = test system: NCI-H82; format: functional, cell-based, Homo sapiens; settings: Homo sapiens, NCI-H82;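 also: growth inhibition of NCI-H82 cells, measured with a cell viability readout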
Description: SANGER: Inhibition of human NCI-H82 cell growth in a cell viability assay.

[49] = test system: CTV-1; format: functional, cell-based, Homo sapiens; settings: Homo sapiens, CTV-1;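 also: growth inhibition of the cell line, read out with a cell viability assay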
Description: SANGER: Inhibition of human CTV-1 cell growth in a cell viability assay.

[50] = test system: KG-1; format: functional, cell-based, Homo sapiens; settings: Homo sapiens, KG-1;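 also: growth inhibition of KG-1 cells, read out by a cell viability assay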
Description: SANGER: Inhibition of human KG-1 cell growth in a cell viability assay.

Measured: IC50

COc1ccc(N(C(=O)Oc2c(C)cccc2C)c2ccnc(Nc3ccc(N4CCN(C)CC4)cc3)n2)c(OC)c1
< 20 nM: [30] | [49]
2050 nM: [38]
1730 nM: [42]
2290 nM: [11]
20.3 nM: [9]
2120 nM: [21]
2240 nM: [2]
75.9 nM: [31]
4360 nM: [4]
1270 nM: [8]
350 nM: [6]
426 nM: [10]
> 5120 nM: [1] | [3] | [5] | [7] | [12] | [13] | [14] | [15] | [16] | [17] | [18] | [19] | [20] | [22] | [23] | [24]; read-out: IC50 | [25] | [26] | [28] | [29] | [32] | [33] | [35] | [36] | [37] | [39] | [40] | [41] | [43] | [44] | [45] | [46] | [47] | [48]
1040 nM: [34]
326 nM: [27]; read-out: IC50

O=C1NC(=O)c2c1c(-c1ccccc1Cl)cc1[nH]c3ccc(O)cc3c21
771 nM: [18]
898 nM: [14]
> 2000 nM: [1] | [2] | [3] | [4] | [6] | [7] | [9] | [10] | [11] | [12] | [13] | [15] | [16] | [19] | [20] | [22] | [24]; read-out: IC50 | [25] | [26] | [27]; read-out: IC50 | [29] | [30] | [33] | [34] | [35] | [37] | [38] | [39] | [40] | [42] | [43] | [45] | [46] | [48] | [49]
1160 nM: [36]
1640 nM: [5]
484 nM: [41]
1530 nM: [47]
1430 nM: [28]
862 nM: [50]
1820 nM: [23]
917 nM: [44]
135 nM: [17]
1650 nM: [21]

O=C(NCCCNc1nc(Nc2cccc(NC(=O)N3CCCC3)c2)ncc1I)c1cccs1 [BX-795]
1180 nM: [47]
2620 nM: [15]
1650 nM: [12]
2280 nM: [50]
1770 nM: [30]
3430 nM: [44]
4650 nM: [5]
> 5000 nM: [2] | [4] | [6] | [7] | [10] | [16] | [18] | [19] | [21] | [22] | [23] | [25] | [27]; read-out: IC50 | [32] | [33] | [34] | [35] | [36] | [37] | [38] | [39] | [43] | [45] | [46] | [48]
657 nM: [8]
362 nM: [3]
1860 nM: [28]
2290 nM: [17]
1290 nM: [31]
1470 nM: [9]
2380 nM: [11]
2440 nM: [42]
726 nM: [14]
3100 nM: [41]

Cc1ccc(NC(=O)c2ccc(CN3CCN(C)CC3)cc2)cc1Nc1nccc(-c2cccnc2)n1 [IMATINIB]
> 2000 nM: [1] | [3] | [4] | [5] | [6] | [7] | [8] | [9] | [10] | [11] | [12] | [13] | [14] | [15] | [17] | [18] | [19] | [20] | [21] | [22] | [23] | [24] | [25] | [26] | [27] | [28] | [29] | [31] | [32] | [33] | [34] | [35] | [36] | [37] | [38] | [39] | [40] | [41] | [42] | [43] | [44] | [45] | [46] | [47] | [50] | [48] | [49]
73 nM: [30]

CS(=O)(=O)N1CCN(Cc2cc3nc(-c4cccc5[nH]ncc45)nc(N4CCOCC4)c3s2)CC1 [PICTILISIB]
448 nM: [8]
2310 nM: [42]
523 nM: [31]
1080 nM: [34]
1650 nM: [28]
949 nM: [39]
2030 nM: [30]
> 4000 nM: [2] | [4] | [6] | [7] | [9] | [10] | [12] | [15] | [16] | [18] | [21] | [22] | [23] | [27]; read-out: IC50 | [33] | [35] | [37] | [38] | [41] | [43] | [44] | [45] | [46] | [50] | [48]
1010 nM: [32]
1910 nM: [25]
111 nM: [5]
718 nM: [11]
262 nM: [14]
798 nM: [47]
865 nM: [17]
207 nM: [36]
1300 nM: [19]
593 nM: [3]

Source: ChEMBL document CHEMBL1201861, “Genomics of Drug Sensitity in Cancer screening data, Wellcome Trust Sanger Institute”
